Data: patent US9671412B2, “Beclin 1 phosphorylation” (Board of Regents, The University of Texas System, priority 2012, dated 2017)
“Also recorded” adds a separate entry of the source.

Assays:
[1] = system: A549 cells (wild-type EGFR); assay: Autophagy in serum-starved A549 cells; assay type: cell-based, human; details: addition for 30 min
Source text: (§1) To evaluate whether EGFR activation inhibits autophagy, we used a human non-small cell lung carcinoma (NSCLC) cell line, A549, that express wild-type (WT) EGFR (VanMeter et al., 2008). We measured autophagy by examining the subcellular localization of a green fluorescent autophagy reporter protein, GFP-LC3, and by measuring levels of LC3-II, the autophagosome-associated lipidated form of LC3, and p62, an autophagic substrate (Mizushima et al., 2010).

GST-Akt1 = target: T1, GST-Akt1 (Homo sapiens, UniProt P31749); assay: In vitro phosphorylation of Beclin 1 S295 by GST-Akt1; assay type: biochemical; details: in vitro kinase reaction
T1 construct: GST
Source text: (§2) We examined whether autophagy execution proteins could be targets of Akt. We focused on Beclin 1 because of its role in autophagy and tumor suppression (4).

[2] = system: myr-Akt1-expressing Rat2 cell tumors; assay: Tumors of myr-Akt1-expressing Rat2 cells in NOD SCID mice; assay type: in vivo; details: co-expressed with myr-Akt1 in Rat2 cells
Source text: To examine the role of Akt-mediated Beclin 1 phosphorylation in Akt-driven tumorigenesis, we transduced Rat2 fibroblasts with myr-Akt1 (which transforms rat fibroblasts (15)) and either wild-type Beclin 1 or Beclin 1 phosphorylation site mutants. Myr-Akt1 suppressed autophagy in Rat2 fibroblasts, reduced co-immunoprecipitation of Class III PI3K Vps34 with Beclin 1, and decreased Beclin 1-associated lipid kinase activity. […] Expression of myr-Akt1 had minimal effects on the interaction of Beclin 1 AA and Vps34 or on the amounts of Beclin 1 AA-associated Vps34 activity. Thus, myr-Akt1 suppresses Beclin 1-associated Vps34 activity and autophagy in a manner that is partially reversed by a Beclin 1 mutant resistant to Akt-mediated phosphorylation.
All myr-Akt1-expressing Rat2 cells formed tumors in immunodeficient NOD SCID® mice, but tumor growth rate and tumor mass upon necropsy were less for cells expressing Beclin 1 AA than for cells expressing wild-type Beclin 1 or myr-Akt1 alone. Tumors expressing myr-Akt1 alone had numerous cells displaying p62 immunoreactivity (indicating autophagy suppression) whereas very few p62 immunoreactive cells were detected in tumors from cells expressing both myr-Akt1 and Beclin 1 AA. […] Tumors expressing active Akt alone or with Beclin 1 had higher mean mitotic counts (n=8.39; n=8.37, respectively) than tumors expressing myr-Akt1 and Beclin 1 AA (n=3.67) (P<0.0001). They also had increased Ki-67 labeling, and decreased TUNEL staining. Thus, the expression of a mutant of Beclin 1 that cannot be phosphorylated by Akt increases tumor cell autophagy, decreases tumor growth rate and size, decreases tumor cellular proliferation, and increases tumor cell death.

mTOR = assay: Phospho-4E-BP1 (mTOR phosphorylation target) in HeLa cells; assay type: cell-based; details: including those expressing myr-Akt1
Source text: We investigated whether Akt inhibits autophagy by directly regulating the core autophagy machinery independently of mTOR. Expression of constitutively active myristoylated (5) and tagged Akt1 (Flag-tagged myr-Akt) in HeLa cells inhibited autophagy during growth in normal medium, in response to serum and amino acid starvation (a physiological inducer of autophagy), in response to treatment with an ATP-competitive inhibitor of mTOR, Torin1 (6), and in response to both starvation and Torin1 treatment. In all conditions, cells expressing myr-Akt1 had decreased numbers of puncta upon transfection with a fusion protein of green fluorescent protein with LC3 (GFP-LC3), a fluorescent marker of autophagosomes; increased amounts of p62 (a substrate that is degraded by autophagy); and increased amounts of the cytosolic non-lipidated form of LC3, LC3-I, and of total LC3 (7). Amounts of phospho-4E-BP1, a phosphorylation target of mTOR, were decreased in Torin1-treated cells, including those expressing myr-Akt1.

HeLa cells = assay: Autophagy induction in HeLa cells transfected with empty vector or WT EGFR; assay type: cell-based
Source text: We investigated the effects of active EGFR mutants that constitutively bind Beclin 1 on autophagy. […] In cells transfected with the active EGFR mutants, L858R or 4746-750, starvation and Torin1 induced lower levels of autophagy. […] Thus, active EGFR mutants suppress autophagy in a manner that is partially independent of mTOR.

[3] = system: Beclin 1 S295 / S234 phosphorylation; assay: Phosphorylation of endogenous Beclin 1 S295 and S234 in HeLa cells expressing myr-Akt1; assay type: cell-based
Source text: as §2

[4] = system: MCF7 human breast carcinoma cells; assay: Basal autophagy (GFP-LC3) in transfected MCF7 cells; assay type: cell-based; details: lesser extent with Beclin 1 AA than with wild-type Beclin 1
Source text: We transfected MCF7 human breast carcinoma cells [which express low amounts of endogenous Beclin 1 (14)] with GFP-LC3 and wild-type Beclin 1 or Beclin 1 S295A or AA mutants. […] Thus, Akt inhibits basal autophagy both through Beclin 1 phosphorylation-dependent and independent mechanisms.

H1975 cells = assay: Autophagy (GFP-LC3 puncta, LC3-II, p62) in H1975 NSCLC cells; assay type: cell-based, human
Source text: as §1
We investigated whether this mechanism underlies EGFR regulation of autophagy in NSCLC cells with activating mutations in EGFR. We used two NSCLC lines: HCC827 cells have the Δ746-750 EGFR activating mutation and are TKI-sensitive, and H1975 cells have the L858R EGFR activating mutation and are TKI-resistant due to a T790M mutation. First, we evaluated if TKI treatment induces autophagy; […]. Thus, TKI therapy disrupts the EGFR/Beclin 1 complex and induces autophagy in TKI-sensitive but not TKI-resistant cells.

HCC827 xenografts = assay: HCC827 tumor xenografts under TKI therapy; assay type: in vivo; details: control mice without induction or with induced WT Beclin 1
Source text: (§3) We investigated whether this mechanism underlies EGFR regulation of autophagy in NSCLC cells with activating mutations in EGFR. We used two NSCLC lines: HCC827 cells have the Δ746-750 EGFR activating mutation and are TKI-sensitive, and H1975 cells have the L858R EGFR activating mutation and are TKI-resistant due to a T790M mutation.

[5] = system: EGFR L858R/T790M (H1975 cells); assay: EGFR signalling, Beclin 1 interactome and Beclin 1 tyrosine phosphorylation in H1975 cells; assay type: cell-based, human
Source text: as §3

HCC827 cells = assay: Autophagy (GFP-LC3 puncta, LC3-II, p62) in HCC827 NSCLC cells; assay type: cell-based, human
Source text: as §3

[6] = system: EGFR Δ746-750 (HCC827 cells)
Source text: as §3

T1 sequence (P31749 whole entry): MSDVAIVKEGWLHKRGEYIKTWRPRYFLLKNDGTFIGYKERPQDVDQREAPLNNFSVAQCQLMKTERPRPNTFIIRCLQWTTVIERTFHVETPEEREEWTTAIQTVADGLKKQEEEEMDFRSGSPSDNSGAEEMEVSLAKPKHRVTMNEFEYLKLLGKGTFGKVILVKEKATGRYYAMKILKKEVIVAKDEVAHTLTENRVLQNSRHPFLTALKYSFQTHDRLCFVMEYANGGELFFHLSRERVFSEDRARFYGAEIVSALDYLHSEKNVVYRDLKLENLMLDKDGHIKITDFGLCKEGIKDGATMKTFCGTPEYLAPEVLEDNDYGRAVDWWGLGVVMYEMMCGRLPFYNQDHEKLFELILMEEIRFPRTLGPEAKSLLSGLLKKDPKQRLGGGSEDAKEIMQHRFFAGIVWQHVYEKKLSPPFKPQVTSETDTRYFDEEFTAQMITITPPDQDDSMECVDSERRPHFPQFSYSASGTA

## epidermal growth factor [EGF, growth factor ligand that triggers EGFR signaling]
[1]
  autophagy induced by serum depletion: partially reversed autophagy induction

## CCN(CC)CCCCN1c2ccccc2Oc2ccc(Cl)cc21 [Akt inhibitor X]
GST-Akt1
  GST-Akt1 phosphorylation of Beclin 1 S295 in vitro: partially blocked

## Beclin 1 AA: Beclin 1 double mutation S234A/S295A, cannot be phosphorylated by Akt; expressed in cells
[2]
  mean mitotic counts of tumors: 3.67
  tumors displaying degenerative features with numerous pyknotic nuclei: 60%

## CCC(=O)N1CCN(c2ccc(-n3c(=O)ccc4cnc5ccc(-c6cnc7ccccc7c6)cc5c43)cc2C(F)(F)F)CC1 [Torin1]
mTOR
  amounts of phospho-4E-BP1: decreased
HeLa cells
  autophagy: induced autophagy
[3]
  myr-Akt1-driven phosphorylation of endogenous Beclin 1 S295 and S234: not reversed

## Beclin 1: wild-type human Beclin 1, essential autophagy and tumor suppressor protein; expressed in cells
[2]
  mean mitotic counts of tumors: 8.37

## NC1(c2ccc(-c3nc4ccn5c(=O)[nH]nc5c4cc3-c3ccccc3)cc2)CCC1 [MK-2206]
GST-Akt1
  GST-Akt1 phosphorylation of Beclin 1 S295 in vitro: partially blocked
[4]
  basal autophagy: increased basal autophagy

## C#Cc1cccc(Nc2ncnc3cc(OCCOC)c(OCCOC)cc23)c1 [erlotinib]
H1975 cells; H1975 cells
  LC3-II conversion and p62 degradation: not
H1975 cells; H1975 cells stably transfected with GFP-LC3
  GFP-LC3 puncta: not
HCC827 xenografts
  time to complete regression of all tumor xenografts: ≤ 14 days
[5]
  Beclin 1/EGFR interaction: not
[5]; phosphospecific antibody
  endogenous Beclin 1 Y233 phosphorylation: not
HCC827 cells; HCC827 cells
  LC3-II conversion and p62 degradation: demonstrated LC3-II conversion and p62 degradation
HCC827 cells; HCC827 cells stably transfected with GFP-LC3
  GFP-LC3 puncta: increased GFP-LC3 puncta in a dose-dependent manner
[6]
  Beclin 1/EGFR interaction: blocked; also recorded: disruption of EGFR/Beclin 1 binding
  Beclin 1 tyrosine phosphorylation: decreased
  EGFR phosphorylation: EGFR dephosphorylation
[6]; phosphospecific antibody
  endogenous Beclin 1 Y233 phosphorylation: blocked
